Experimental data from PubChem BioAssay (NCI).
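Assay format: 96-well plates, 48-hour exposure. GI50 marks 50% less growth. At the TGI there is no net growth.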

How the values were obtained:
Assay in all cases: NCI tumour cell line growth inhibition, 48 h
UACC-62 melanoma = test system: UACC-62 melanoma
SK-MEL-28 melanoma = test system: SK-MEL-28 melanoma
HOP-62 NSCLC = test system: HOP-62 NSCLC
SF-268 CNS = test system: SF-268 CNS
HL-60(TB) leukemia = test system: HL-60(TB) leukemia
T-47D breast = test system: T-47D breast
NCI-H522 lung = test system: NCI-H522 lung
UACC-257 melanoma = test system: UACC-257 melanoma
SK-MEL-5 melanoma = test system: SK-MEL-5 melanoma
RPMI-8226 leukemia = test system: RPMI-8226 leukemia

## CC1=CC(C)(C)NN1C1=NS(=O)(=O)c2ccccc2N1C
UACC-62 melanoma
  TGI: > 100 µM
SK-MEL-28 melanoma
  TGI: > 100 µM
HOP-62 NSCLC
  TGI: > 100 µM
SF-268 CNS
  TGI: > 100 µM
HL-60(TB) leukemia
  TGI: > 100 µM
T-47D breast
  TGI: > 100 µM
NCI-H522 lung
  TGI: > 100 µM
UACC-257 melanoma
  TGI: > 100 µM
SK-MEL-5 melanoma
  TGI: > 100 µM

## Cc1nc2c(o1)C(=Nc1ccccc1)c1nc(C)oc1C2=Nc1ccccc1
UACC-62 melanoma
  TGI: 39.4 µM
SK-MEL-28 melanoma
  TGI: 44.9 µM
RPMI-8226 leukemia
  TGI: > 100 µM
HOP-62 NSCLC
  TGI: 36.3 µM
SF-268 CNS
  TGI: 47.9 µM
HL-60(TB) leukemia
  TGI: > 100 µM
NCI-H522 lung
  TGI: 42.7 µM
UACC-257 melanoma
  TGI: 97.6 µM
SK-MEL-5 melanoma
  TGI: 2.34 µM

## CN(/N=C/c1ccnc2ccccc12)c1c([N+](=O)[O-])cc([N+](=O)[O-])cc1[N+](=O)[O-]
UACC-62 melanoma
  TGI: > 100 µM
SK-MEL-28 melanoma
  TGI: > 100 µM
RPMI-8226 leukemia
  TGI: > 100 µM
HOP-62 NSCLC
  TGI: > 100 µM
SF-268 CNS
  TGI: > 100 µM
HL-60(TB) leukemia
  TGI: 61.2 µM
NCI-H522 lung
  TGI: 92.8 µM
UACC-257 melanoma
  TGI: > 100 µM
SK-MEL-5 melanoma
  TGI: > 100 µM

## O=C(/C=C/c1cccc([N+](=O)[O-])c1)c1ccc([N+](=O)[O-])cc1
UACC-62 melanoma
  TGI: > 100 µM
SK-MEL-28 melanoma
  TGI: > 100 µM
HOP-62 NSCLC
  TGI: > 100 µM
SF-268 CNS
  TGI: > 100 µM
HL-60(TB) leukemia
  TGI: > 100 µM
NCI-H522 lung
  TGI: > 100 µM
UACC-257 melanoma
  TGI: > 100 µM
SK-MEL-5 melanoma
  TGI: > 100 µM

## COC(=O)C1C(=O)O[C@@H](c2cc(OC)c(OC)cc2OC)C1C(=O)OC (mixture of isomers)
UACC-62 melanoma
  TGI: > 100 µM
SK-MEL-28 melanoma
  TGI: > 100 µM
RPMI-8226 leukemia
  TGI: > 100 µM
HOP-62 NSCLC
  TGI: > 100 µM
SF-268 CNS
  TGI: > 100 µM
HL-60(TB) leukemia
  TGI: > 100 µM
NCI-H522 lung
  TGI: > 100 µM
UACC-257 melanoma
  TGI: > 100 µM
SK-MEL-5 melanoma
  TGI: > 100 µM

## COc1ccc(S(=O)(=O)N(CC(=O)O)c2ccccc2)cc1
UACC-62 melanoma
  TGI: > 100 µM
SK-MEL-28 melanoma
  TGI: > 100 µM
RPMI-8226 leukemia
  TGI: > 100 µM
SF-268 CNS
  TGI: > 100 µM
HL-60(TB) leukemia
  TGI: > 100 µM
NCI-H522 lung
  TGI: > 100 µM
UACC-257 melanoma
  TGI: > 100 µM
SK-MEL-5 melanoma
  TGI: > 100 µM

## Clc1cccc(-c2nnc(-c3nn(-c4ccccc4)c4nc5ccccc5nc34)o2)c1
UACC-62 melanoma
  TGI: > 100 µM
SK-MEL-28 melanoma
  TGI: > 100 µM
RPMI-8226 leukemia
  TGI: > 100 µM
HOP-62 NSCLC
  TGI: > 100 µM
SF-268 CNS
  TGI: > 100 µM
HL-60(TB) leukemia
  TGI: > 100 µM
NCI-H522 lung
  TGI: > 100 µM
UACC-257 melanoma
  TGI: > 100 µM
SK-MEL-5 melanoma
  TGI: > 100 µM

## COC(=O)C1=CC2C=CC(C1C(=O)OC)C1C(C(=O)OC)=C(C(=O)OC)C(C(=O)OC)=C(C(=O)OC)C21OC (configuration not stated)
UACC-62 melanoma
  TGI: > 100 µM
SK-MEL-28 melanoma
  TGI: > 100 µM
RPMI-8226 leukemia
  TGI: > 100 µM
HOP-62 NSCLC
  TGI: > 100 µM
SF-268 CNS
  TGI: > 100 µM
HL-60(TB) leukemia
  TGI: > 100 µM
NCI-H522 lung
  TGI: > 100 µM
UACC-257 melanoma
  TGI: > 100 µM
SK-MEL-5 melanoma
  TGI: > 100 µM

## CC(=O)[CH-]C(=O)c1ccccc1.CC(=O)[CH-]C(=O)c1ccccc1.O=S(=O)([O-])c1cc([O-])c2c([O-])cc(S(=O)(=O)[O-])cc2c1.[Na+].[Zr+4]
UACC-62 melanoma
  GI50: > 100 µM
  TGI: > 100 µM
SK-MEL-28 melanoma
  GI50: > 100 µM
  TGI: > 100 µM
RPMI-8226 leukemia
  GI50: > 100 µM
  TGI: > 100 µM
HOP-62 NSCLC
  GI50: 76 µM
  TGI: > 100 µM
SF-268 CNS
  GI50: > 100 µM
  TGI: > 100 µM
HL-60(TB) leukemia
  GI50: > 100 µM
  TGI: > 100 µM
NCI-H522 lung
  GI50: > 100 µM
  TGI: > 100 µM
UACC-257 melanoma
  GI50: 87.2 µM
  TGI: > 100 µM
SK-MEL-5 melanoma
  GI50: > 100 µM
  TGI: > 100 µM

## CCNC(=O)OCc1c(COC(=O)NCC)c(-c2ccc(Cl)c(Cl)c2)n2c1CCC2
UACC-62 melanoma
  TGI: 23.1 µM
SK-MEL-28 melanoma
  TGI: 36.9 µM
RPMI-8226 leukemia
  TGI: 27.9 µM
HOP-62 NSCLC
  TGI: 23.8 µM
SF-268 CNS
  TGI: 32.8 µM
HL-60(TB) leukemia
  TGI: 22.2 µM
NCI-H522 lung
  TGI: 19.8 µM
UACC-257 melanoma
  TGI: 83.8 µM
SK-MEL-5 melanoma
  TGI: 29.8 µM
